Results taken from US5223504A, “Xanthine compounds and compositions, and methods of using them” (Laboratorios Almirall SA, priority 1989, dated 1993).

What was measured:
PDE III = biological target: T1, PDE III (Cavia porcellus, UniProt H0VIU9); experiment: Non-sensitized guinea-pig right ventricle strips: increase in developed tension (PDE III inhibitory activity); assay type: cell-based; conditions: concentration causing 50% increase in developed tension; untreated (non-sensitized) strips; 37° C., 1 Hz; read-out: Guinea-Pig Non-Sensitized right ventricle strips (EC50μ M)
T1 construct: their hearts were removed and 2 ventricular preparations; from tissue; host or cells: guinea-pig right ventricle strips
T1 sequence (H0VIU9 1-1132): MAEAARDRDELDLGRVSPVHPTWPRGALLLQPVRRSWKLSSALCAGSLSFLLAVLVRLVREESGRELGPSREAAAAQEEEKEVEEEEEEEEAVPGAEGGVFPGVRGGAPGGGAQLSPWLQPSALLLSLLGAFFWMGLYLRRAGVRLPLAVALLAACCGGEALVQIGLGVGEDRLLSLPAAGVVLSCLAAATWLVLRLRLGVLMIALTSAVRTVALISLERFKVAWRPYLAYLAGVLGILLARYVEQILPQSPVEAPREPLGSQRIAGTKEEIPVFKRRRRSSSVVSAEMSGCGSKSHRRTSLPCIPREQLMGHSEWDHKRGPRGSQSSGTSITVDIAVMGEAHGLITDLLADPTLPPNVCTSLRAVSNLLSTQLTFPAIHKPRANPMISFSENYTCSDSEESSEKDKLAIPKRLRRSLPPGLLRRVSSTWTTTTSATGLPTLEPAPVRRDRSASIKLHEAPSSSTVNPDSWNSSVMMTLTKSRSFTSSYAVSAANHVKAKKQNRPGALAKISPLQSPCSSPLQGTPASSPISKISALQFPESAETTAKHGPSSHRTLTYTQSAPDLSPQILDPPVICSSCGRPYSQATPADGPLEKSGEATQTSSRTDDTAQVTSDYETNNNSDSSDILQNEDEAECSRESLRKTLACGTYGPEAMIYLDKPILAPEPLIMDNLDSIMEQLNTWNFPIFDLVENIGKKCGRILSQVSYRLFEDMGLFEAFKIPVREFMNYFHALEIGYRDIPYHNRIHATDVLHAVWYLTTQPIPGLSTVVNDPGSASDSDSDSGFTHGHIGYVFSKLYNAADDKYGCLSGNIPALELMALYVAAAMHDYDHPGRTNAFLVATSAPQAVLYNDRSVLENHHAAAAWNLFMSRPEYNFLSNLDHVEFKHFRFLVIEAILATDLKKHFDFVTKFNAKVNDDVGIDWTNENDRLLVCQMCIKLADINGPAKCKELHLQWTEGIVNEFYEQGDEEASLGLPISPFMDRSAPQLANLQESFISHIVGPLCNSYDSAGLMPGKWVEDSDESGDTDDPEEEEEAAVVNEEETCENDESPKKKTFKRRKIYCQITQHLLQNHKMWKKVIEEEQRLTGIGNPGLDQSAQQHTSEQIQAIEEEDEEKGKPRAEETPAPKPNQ
Experimental: (§1) There is, however, a synergistic interaction between selective PDE III and PDE IV inhibitors in guinea-pig ventricle. […] There were then mounted in organ baths containing modified Krebs-Henseleit solution of the following composition (mM): NaCl 118; NaHCO3 25; Glucose 11; KCl 5.4; CaCl2 2.5; NaH2PO4 1.2 and MgCl2 0.8. The physiological buffer was maintained at 37° C. and continually aerated with 95% O2 / 5% CO2 v/v. The preparations were placed under 1 g resting tension and electrically stimulated to contract at 1 Hz whilst force of contraction was measured using an isometric force transducer. Preparations were equilibrated for 60 minutes during which they were washed every 15 minutes with fresh buffer. […] Concentrations causing a 50% increase (EC50) were calculated.

PDE IV = experiment: Guinea-pig right ventricle strips sensitized with a PDE III inhibitor (e.g. amrinone): increase in developed tension (PDE IV inhibitory activity); assay type: cell-based; conditions: concentration causing 50% increase in developed tension; strips pre-treated with selective PDE III inhibitor (e.g. amrinone) 10 minutes before; 37° C., 1 Hz; read-out: Guinea-Pig Sensitized right ventricle strips (EC50μ M)
Experimental: as §1

[1] = tested on: isolated guinea-pig ventricles; conditions: literature (Gristwood and Owen, Br. J. Pharmacol., 87, 91P., 1985); cited from earlier work

Structure (SMILES) | EC50 (PDE III) [µM] | EC50 (PDE IV) [µM] | inotropic response in isolated guinea-pig ventricles [1]
CCCn1c(=O)c2[nH]cnc2n(-c2ccc(Cl)cc2)c1=O [Compound 1, 1-n-propyl-3-(4-chlorophenyl)-xanthine] | > 100 | 1.6 | 
CC(=O)Nc1ccc(-c2c[nH]c(=O)cn2)cc1 [SK&F 94120] |  |  | produce a positive inotropic response
CCCCCCn1c(=O)c2[nH]cnc2n(-c2ccc3c(c2)OCO3)c1=O [Compound 36, 1-n-hexyl-3-(3,4-methylenedioxyphenyl)-xanthine] | > 100 | 1 | 
COc1ccc(C2CNC(=O)C2)cc1OC1CCCC1 (stereo not shown) [rolipram] |  |  | have no effect
Cn1c(=O)c2[nH]cnc2n(C)c1=O [THEOPHYLLINE, reference compound] | 1000 | 1520 | 
CCCn1c(=O)c2[nH]cnc2n(-c2cccc(Cl)c2)c1=O [Compound 2] | > 100 | 0.1 | 
CCCn1c(=O)c2[nH]cnc2n(-c2ccc(Br)cc2)c1=O [Compound 5] | > 100 | 0.9 | 
CCCCn1c(=O)c2[nH]cnc2n(-c2ccc(F)cc2)c1=O [Compound 18] | > 100 | 0.2 | 
Cn1c(=O)c2[nH]cnc2n(-c2ccccc2)c1=O [Compound A, 1methyl-3-phenylxanthine, reference compound] | > 100 | 8.9 | 
CCCn1c(=O)c2[nH]cnc2n(-c2ccc(Cl)c(Cl)c2)c1=O [Compound 12, 1-n-propyl-3-(3,4-dicholorophenyl)-xanthine] | > 100 | 1.3 | 
CCCn1c(=O)c2[nH]cnc2n(-c2cccc([N+](=O)[O-])c2)c1=O [Compound 10] | > 100 | 0.4 | 
CCCCn1c(=O)c2[nH]cnc2n(-c2ccc(OC)cc2)c1=O [Compound 20] | > 100 | 0.3 | 
CCCn1c(=O)c2[nH]c(C)nc2n(-c2ccccc2)c1=O [Compound B, 1propyl-3-phenyl-8-methylxanthine, reference compound] | > 100 | 7 | 
CCCCn1c(=O)c2[nH]cnc2n(-c2cccc(OC)c2)c1=O [Compound 21, 1-n-butyl-3-(3-methoxyphenyl)-xanthine] | > 100 | 1.2 | 
CCCn1c(=O)c2[nH]cnc2n(-c2cccc(OC)c2)c1=O [Compound 9] | > 100 | 0.2 | 
